Results taken from patent US20180201662A1, “PEPTIDE FOR PROMOTING CELL MIGRATION AND/OR SKIN WOUND HEALING, PHARMACEUTICAL COMPOSITION CONTAINING THE SAME, AND APPLICATION THEREOF” (Industrial Technology Research Institute, priority 2016, published 2018).
Where no end group is shown, it is not given here. [ ]: non-standard residue; d: D form.

Columns and labels:
Assay type in all cases: cell-based
[1] = system: human monocyte-derived macrophages; test: TNF-α secretion of monocyte-derived macrophages stimulated with peptides (ELISA)
Description: (§1) Peripheral blood mononuclear cells were isolated from leukocytes in the blood of healthy donors by Ficoll Hypaque.
(§2) Monocytes were isolated from the peripheral blood mononuclear cells by using Human MACS CD14 Isolation Kit.
(§3) Monocytes (2×10^6 cells/mL) were seeded in a 6-well plate containing 2 mL fresh complete medium and cultured at 5% CO2, 37° C. for 6 days. The medium was changed every 2-3 days to make the monocytes differentiate to macrophages.
2. Detection of TNF-α Secretion of Monocyte-Derived Macrophages Stimulated with Peptides
Peptides were added to respective wells of a culturing plate to stimulate macrophages for 48 hours. Macrophages not stimulated were used as a blank group.
2.2.1 TNF-α secreted from macrophages to the supernatant of the culture was detected by a human TNF-α kit.
2.2.2 Absorbance of the supernatant of the culture at 450-540 nm was detected by a SpectraMax M5 microplate reader. Detection limitation of this ELISA kit to TNF-α is about […].

[2] = system: human umbilical vein endothelial cells (HUVEC); test: MCP-1 secretion of human umbilical vein endothelial cells HUVECs stimulated with peptides (ELISA); details: Peptide 6 660 and 165 μg/ml, IL-6 200 and 50 ng/ml, FIG. 2A
Description: (§4) 3. Detections of MCP-1 Secretion of Human Umbilical Vein Endothelial Cells HUVECs and Human Monocyte-Derived Macrophages Stimulated with Peptides
(§5) Peptides were added to respective wells of a culturing plate to stimulate HUVECs for 24-48 hours, or to stimulate macrophages for 48 hours. In the experiment for macrophages, macrophages not stimulated were used as a blank group.
(§6) 3.2.1 MCP-1 respectively secreted from HUVECs and macrophages to the supernatant of the culture was detected by a […].
(§7) 3.2.2 Absorbance of the supernatant of the culture at 450-540 nm was detected by a SpectraMax M5 microplate reader. Detection limitation of this ELISA kit to MCP-1 is about […].

[3] = system: human keratinocyte cell line HaCaT; test: MMP9 secretion of human keratinocyte cell line HaCaT stimulated with peptides (ELISA); details: 48 hours; peptides 1.5, 1 and 0.5 mg/ml vs IL-6 1000 and 100 ng/ml; FIG. 9
Description: 5. Detection of MMP9 Secretion of Human Keratinocyte Cell Line HaCaT Stimulated with Peptides
Peptides were added to respective wells of a culturing plate to stimulate HaCaT cells for 48 hours. HaCaT cells not stimulated were used as a blank group.
5.2.1 MMP9 secreted from HaCaT cells to the supernatant of the culture was detected by a MMP9 kit (R&D systems, Human MMP-9 DuoSet ELISA (DY911)).
5.2.2 Absorbance of the supernatant of the culture at 450-540 nm was detected by a SpectraMax M5 microplate reader. Detection limitation of this ELISA kit to MMP9 is about […].

[4] = system: human monocyte-derived macrophages; test: MCP-1 secretion of human monocyte-derived macrophages stimulated with peptides (ELISA)
Description: as §1, §2, §3, §4, §5, §6, §7

[5] = system: human keratinocyte cell line HaCaT; test: Cell migration analysis of human keratinocyte cell line HaCaT stimulated with peptides (scratch); details: compared to control group; concentrations of 300 μg/ml, 660 μg/ml and 1000 μg/ml; 18 hour; FIG. 3A, 3B
Description: 4. Cell Migration Analysis of Human Keratinocyte Cell Line HaCaT Stimulated with Peptides
4.1 Each well of a 12-well culturing plate was coated with 100 μg/ml of collagen (in 0.02N acetic acid) (0.5 ml/well).
4.2 The culturing plate was placed at 37° C. for 1 hour, and then was washed with Dulbecco's phosphate buffered saline (DPBS) one time.
4.3 HaCaT cells were seeded in the culturing plate with DMEM containing serum (5×10^5 cells/well), and the final serum concentration for each well was 10%.
4.4 The cells were cultured in a condition of 5% CO2, 37° C.
4.5 The medium was replaced with DMEM containing 0.6% serum for serum starvation and culture the cells overnight.
4.6 The bottom of the well of the culturing plate was scraped with 1000 μl tips, and the culturing plate was washed with Dulbecco's phosphate buffered saline twice.
4.7 The cells and peptides were cultured in DMEM containing 0.6% serum. HaCaT cells not stimulated with peptides or growth factors were used as a control group.
4.8 Photographs were taken at 0 hour and 18 hour.
4.9. The photographs were analyzed by Celllmage Comp software, and the migration distances for cells were calculated.

[6] = macrophages of Donor 4, 48 hours, peptides up to 250 μg/ml, IL-6 100 ng/ml and 50 ng/ml, FIG. 7
[7] = macrophages of Donor 5, 48 hours, peptides 50 μg/ml, IL-6 200 ng/ml, FIG. 12
[8] = macrophages of Donors 1-3, 48 hours, Peptide 6 up to 1000 μg/ml, IL-6 50 ng/ml, FIG. 1A-1C
[9] = macrophages of Donor 4, 48 hours, peptides 50 ng/ml-250 μg/ml vs IL-6 100 and 50 ng/ml, FIG. 8
[10] = macrophages of Donor 5, 48 hours, peptides 50 μg/ml vs IL-6 200 ng/ml, FIG. 13
[11] = macrophages of Donors 1-3, 48 hours, Peptide 6 125-1000 μg/ml, IL-6 5-200 ng/ml, FIG. 2B-2D

Peptide 6: IL-6-derived peptide, sequence SEQ ID NO. 6, corresponds to amino acids of positions 102 to 129 of mature form IL-6 (NRFESSEEQARAVQMSTKVLIQFLQKKA)
TNF-α secretion of macrophages [1, 6]: a low level of TNF-α
TNF-α secretion of macrophages [1, 7]: almost do not induce TNF-α secretion
TNF-α secretion of macrophages [1, 8]: does not induce macrophages to secrete TNF-α
MCP-1 secretion of HUVECs [2]: a great quantity of MCP-1
MMP9 secretion of HaCaT [3]: a higher level of MMP9 secretion than IL-6
MCP-1 secretion of macrophages [4, 9]: a higher level of MCP-1 secretion than IL-6
MCP-1 secretion of macrophages [4, 10]: a higher level of MCP-1 secretion than IL-6
MCP-1 secretion of macrophages [4, 11]: a great quantity of MCP-1
cell migration of HaCaT [5]: can promote cell migration

IL-6: interleukin; mature form has the sequence of SEQ ID NO. 1; comparator
TNF-α secretion of macrophages [1, 6]: a great quantity of TNF-α
TNF-α secretion of macrophages [1, 7]: a great quantity of TNF-α
TNF-α secretion of macrophages [1, 8]: can induce macrophages to secrete TNF-α
MCP-1 secretion of HUVECs [2]: a lower quantity of MCP-1
MCP-1 secretion of macrophages [4, 11]: a lower quantity of MCP-1

ITRI-2: isoform of Peptide 6 (SEQ ID NO. 6) with one D-form amino acid: valine at position 13 (NRFESSEEQARA[dV]QMSTKVLIQFLQKKA)
TNF-α secretion of macrophages [1, 6]: a low level of TNF-α
MMP9 secretion of HaCaT [3]: a higher level of MMP9 secretion than IL-6
MCP-1 secretion of macrophages [4, 9]: a higher level of MCP-1 secretion than IL-6

6M14: short form peptide of Peptide 6, sequence SEQ ID NO. 3 (EQARAVQMSTKVLI) [Peptide 6M14]
TNF-α secretion of macrophages [1, 7]: almost do not induce TNF-α secretion
MCP-1 secretion of macrophages [4, 10]: a higher level of MCP-1 secretion than IL-6
